Experiments:
corn = experiment: Test A postemergence; type: in vivo, Zea mays; settings: 0 to 100 scale where 0 is no effect and 100 is complete control
Summary of the method: (§1)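 Visual injury scored 0–100 (100 = complete control) against untreated controls about 10 days after treatment in a greenhouse. Test chemicals, formulated with surfactant in non-phytotoxic solvent, were sprayed on soil preemergence or on 2-10 cm, one- to two-leaf plants postemergence.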

pigweed [1] = experiment: Test A preemergence; type: in vivo, Amaranthus retroflexus; settings: 0 to 100 scale where 0 is no effect and 100 is complete control
Summary of the method: as §1

kochia = experiment: Test C postemergence; type: in vivo, Kochia scoparia; settings: Bassia scoparia, post-emergence
Summary of the method: (§2)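 Visual ratings on a 0–100 scale (100 = complete control) were made versus untreated controls after 13–15 greenhouse days. Chemicals in a surfactant-containing non-phytotoxic solvent were applied either preemergence to seeds in loam–sand soil or postemergence to 1- to 4-leaf plants 2–18 cm tall.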

barnyardgrass [2] = experiment: Test A preemergence; type: in vivo, Echinochloa crus-galli; settings: 0 to 100 scale where 0 is no effect and 100 is complete control
Summary of the method: as §1

Heteranthera limosa = experiment: Test B flooded paddy test; type: in vivo; settings: Heteranthera limosa, Flood, 250 g ai/ha; 0 to 100 scale where 0 is no effect and 100 is complete control; read-out: Plant response rating, Ducksalad
Summary of the method: (§3)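 Compound added straight to paddy water, with pots kept flooded 3 cm above soil, on plants grown to the 2-leaf stage. Visual scoring 0-100 (100 = complete control) against untreated controls after 13 to 15 greenhouse days.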

rice = experiment: Test B flooded paddy test; type: in vivo, Oryza sativa; settings: Oryza sativa; Flood, 250 g ai/ha; 0 to 100 scale where 0 is no effect and 100 is complete control; read-out: Plant response rating, Rice
Summary of the method: as §3

barnyardgrass [3] = experiment: Test A postemergence; type: in vivo, Echinochloa crus-galli; settings: 0 to 100 scale where 0 is no effect and 100 is complete control
Summary of the method: as §1

velvetleaf = experiment: Test C postemergence; type: in vivo, Abutilon theophrasti; settings: Abutilon theophrasti, post-emergence
Summary of the method: as §2

pigweed [4] = experiment: Test A postemergence; type: in vivo, Amaranthus retroflexus; settings: 0 to 100 scale where 0 is no effect and 100 is complete control
Summary of the method: as §1

giant foxtail = experiment: Test A postemergence; type: in vivo, Setaria faberii; settings: 0 to 100 scale where 0 is no effect and 100 is complete control
Summary of the method: as §1

galium = experiment: Test C postemergence; type: in vivo, Galium aparine; settings: Galium, post-emergence
Summary of the method: as §2

pigweed [5] = experiment: Test C postemergence; type: in vivo, Amaranthus retroflexus; settings: Amaranthus retroflexus, post-emergence
Summary of the method: as §2

wheat = experiment: Test A postemergence; type: in vivo, Triticum aestivum; settings: 0 to 100 scale where 0 is no effect and 100 is complete control
Summary of the method: as §1

barnyardgrass [6] = experiment: Test C postemergence; type: in vivo, Echinochloa crus-galli; settings: Echinochloa crus-galli, post-emergence
Summary of the method: as §2

sedge, umbrella = experiment: Test B flooded paddy test; type: in vivo, Cyperus difformis; settings: Flood, 250 g ai/ha; 0 to 100 scale where 0 is no effect and 100 is complete control
Summary of the method: as §3

Compound: N#Cc1cccc(Oc2ncc(Cl)cn2)c1-n1cc(SC(F)(F)F)cn1 [Compound 134, 3-[(5-chloro-2-pyrimidinyl)oxy]-2-[4-(trifluoromethylthio)-1-pyrazolyl]benzonitrile]
- Plant response rating, Corn (corn; 500 g ai/ha): 60
- plant injury at 125 g/ha (corn; Zea mays, post-emergence, 240 h, 125 g ai/ha, read-out: Corn plant response rating): 40%
- Pigweed plant response rating (pigweed [1]; 500 g ai/ha): 100
- pest or weed control at 125 g/ha (pigweed [1]; Amaranthus retroflexus, pre-emergence, 125 g ai/ha, read-out: Plant response rating, Pigweed): 100%
- pest or weed control at 16 g/ha (kochia; 16 g ai/ha, postemergence, 0 is no effect, 100 is complete control, read-out: Plant response rating (0 to 100), Kochia): 75%
- pest or weed control at 125 g/ha (kochia; 125 g ai/ha, postemergence, visual rating, scale 0 to 100 (0 no effect, 100 complete control), read-out: Plant response rating, Kochia): 95%
- pest or weed control at 62 g/ha (kochia; Postemergence, 62 g ai/ha, scale 0 to 100 (0 no effect, 100 complete control), read-out: Plant response rating, Kochia): 95%
- Plant response rating, Barnyardgrass (barnyardgrass [2]; 125 g ai/ha): 70
- Barnyardgrass plant response rating (barnyardgrass [2]; 500 g ai/ha): 100
- pest or weed control at 250 g/ha (Heteranthera limosa): 30%
- plant injury at 250 g/ha (rice): 0%
- Barnyardgrass plant response rating (barnyardgrass [3]; 125 g ai/ha): 80
- Plant response rating, Barnyardgrass (barnyardgrass [3]; 500 g ai/ha): 90
- pest or weed control at 16 g/ha (velvetleaf; 16 g ai/ha, postemergence, 0 is no effect, 100 is complete control, read-out: Plant response rating (0 to 100), Velvetleaf): 30%
- pest or weed control at 125 g/ha (velvetleaf; 125 g ai/ha, postemergence, visual rating, scale 0 to 100 (0 no effect, 100 complete control), read-out: Plant response rating, Velvetleaf): 55%
- pest or weed control at 62 g/ha (velvetleaf; Postemergence, 62 g ai/ha, scale 0 to 100 (0 no effect, 100 complete control), read-out: Plant response rating, Velvetleaf): 50%
- Pigweed plant response rating (pigweed [4]; 125 g ai/ha): 100
- Plant response rating, Pigweed (pigweed [4]; 500 g ai/ha): 100
- Foxtail, Giant plant response rating (giant foxtail; 125 g ai/ha): 70
- Plant response rating, Foxtail, Giant (giant foxtail; 500 g ai/ha): 100
- pest or weed control at 16 g/ha (galium; 16 g ai/ha, postemergence, 0 is no effect, 100 is complete control, read-out: Plant response rating (0 to 100), Galium): 65%
- pest or weed control at 125 g/ha (galium; 125 g ai/ha, postemergence, visual rating, scale 0 to 100 (0 no effect, 100 complete control), read-out: Plant response rating, Galium): 85%
- pest or weed control at 62 g/ha (galium; Postemergence, 62 g ai/ha, scale 0 to 100 (0 no effect, 100 complete control), read-out: Plant response rating, Galium): 85%
- pest or weed control at 16 g/ha (pigweed [5]; 16 g ai/ha, postemergence, 0 is no effect, 100 is complete control, read-out: Plant response rating (0 to 100), Pigweed): 75%
- pest or weed control at 125 g/ha (pigweed [5]; 125 g ai/ha, postemergence, visual rating, scale 0 to 100 (0 no effect, 100 complete control), read-out: Plant response rating, Pigweed): 85%
- pest or weed control at 62 g/ha (pigweed [5]; Postemergence, 62 g ai/ha, scale 0 to 100 (0 no effect, 100 complete control), read-out: Plant response rating, Pigweed): 85%
- Plant response rating, Wheat (wheat; 500 g ai/ha): 70
- plant injury at 125 g/ha (wheat; Triticum aestivum, post-emergence, 240 h, 125 g ai/ha, read-out: Wheat plant response rating): 0%
- pest or weed control at 16 g/ha (barnyardgrass [6]; 16 g ai/ha, postemergence, 0 is no effect, 100 is complete control, read-out: Plant response rating (0 to 100), Barnyardgrass): 0%
- pest or weed control at 125 g/ha (barnyardgrass [6]; 125 g ai/ha, postemergence, visual rating, scale 0 to 100 (0 no effect, 100 complete control), read-out: Plant response rating, Barnyardgrass): 10%
- pest or weed control at 31 g/ha (barnyardgrass [6]; Postemergence, 31 g ai/ha, scale 0 to 100 (0 no effect, 100 complete control), 13 to 15 days, read-out: Plant response rating, Barnyardgrass): 5%
- pest or weed control at 62 g/ha (barnyardgrass [6]; Postemergence, 62 g ai/ha, scale 0 to 100 (0 no effect, 100 complete control), read-out: Plant response rating, Barnyardgrass): 5%
- Plant response rating, Sedge, Umbrella (sedge, umbrella): 30

— patent US9695155B2, “Herbicidal substituted pyrimidinyloxy benzene compounds” (E. I. DU PONT DE NEMOURS AND COMPANY, priority 2013, dated 2017)
